We go through seven compounds from US11512074B2, “Substituted diamino heterocyclic carboxamide compound and a composition containing the compound and use thereof” (Shenzhen TargetRx, Inc., priority 2018, dated 2022).

Structures are written as SMILES.

What all share (format): cell-based
The test system of one experiment is MOLM-13 cells. Description: Inhibition of cell MOLM-13 proliferation (CTG assay). The conditions noted are these: Homo sapiens, 72 hours, read-out: MOLM-1 IC50. The text has this:
(§1) Cell MV-4-11 (ATCC, Cat. No. CRL-9591), cell MOLM-13 (COBIOER, Cat. No. CBP60678), RPMI-1640 (GIBCO, Cat. No. A10491-01), penicillin-streptomycin (GIBCO, Cat. No. 15140-122), fetal bovine serum (GIBCO, Cat. No. 10099-141), phosphate buffer solution PBS (GIBCO, Cat. No. 10010-031), DMSO (Sigma, Cat. No. D8418-1L), CelltiterGlo Assay kit (CTG) (Promega, Cat. No. G7573), 96-well plate with transparent flat bottom and black walls (PerkinElmer, Cat. No. 6005680-50), plate shaker (QILINBEIER, Cat. No. B-9002), centrifuge (Eppendorf, Cat. No. 5804R), CO2 incubator (Thermo Scientific, Cat. No. 371), microscope (OLYMPUS Cat. No. CKX41), multi-plate reader (PerkinElmer, Cat. No. EnVision).
(§2) (2) Preparation of Cell Suspension • a) The medium was collected from the culture bottle and centrifuged at 1000 rpm for 5 min. • b) The supernatant was discarded, and the cells were resuspended in medium containing 10% fetal bovine serum, and counted to prepare a cell suspension (cell viability was greater than 90%). • c) The cell suspension was added into a 96-well plate, with […] in each well, namely 5000 MV-4-11 cells/well; 5000 MOLM-13 cells/well. • d) The cell plate was cultured overnight in a 37° C., 5% CO2 incubator.
(§3) Dilution of Compounds in DMSO: • a) MV-4-11 cells: The compounds were diluted with DMSO from 10 mM to 60 uM, and then subjected to a 3-fold serial gradient dilution in DMSO from 60 uM, resulting in 9 concentrations. • b) MOLM-13 cells: The compounds were diluted with DMSO from 10 mM to 200 uM, and then subjected to a 3-fold serial gradient dilution in DMSO from 200 uM, resulting in 9 concentrations. • c) Compound Taxol was diluted with DMSO from 10 mM to 200 uM, and then subjected to a 3-fold serial gradient dilution in DMSO from 200 uM, resulting in 9 concentrations.
(§4) (4) Treatment of Cells with Compounds (after the Overnight Incubation of the Cell Plate) • a) Each well was replenished with 99 μl of growth medium containing 10% FBS, and then 1 μl of the diluted compound was added to the well. The concentration of DMSO was 0.5%. • b) Concentrations of the tested compounds were: MV-4-11 cells: 300, 100, 33.3, 11.1, 3.7, 1.23, 0.41, 0.137, 0.046, 0 [nM]. • MOLM-13 cells: 1000, 333.3, 111.1, 37.04, 12.35, 4.1, 1.37, 0.46, 0.15, 0 [nM]. • c) Concentrations of control compound Taxol were: 1000, 333.3, 111.1, 37.04, 12.35, 4.12, 1.37, 0.46, 0.15, 0 [nM]. • d) The cell plate was placed in the incubator for 72 hours.
(§5) (5) CTG Assay • a) The test plate was placed at room temperature and equilibrated for 30 minutes, and 60 μl of the culture medium was discarded. • b) 60 μl of CTG reagent (CelltiterGlo kit) was added, and the plate was placed on a rapid plate shaker to shake for 2 min, and then let it stand at room temperature for 20 min. • c) Envision was used to read the values.
(§6) IC50 values were calculated using GraphPad Prism 6 software. The IC50 (half inhibitory concentration) values of the compounds were obtained by the following non-linear fitting formula. Y=Bottom+(Top−Bottom)/(1+10^((Log IC50−X)*HillSlope)) • X: Log value of the compound concentration • Y: Inhibition rate (% inhibition) % inhibition (inhibition rate)=100*(value of the High Control-value of the test compound well)/(value of the High Control-value of the Low Control)

The next experiment relates to MV-4-11 cells. Description: Inhibition of cell MV-4-11 proliferation (CTG assay). The settings on record: Homo sapiens, MV4-11, 72 hours.
Text: as §1, §2, §3, §4, §5, §6

For the next experiment, the system named is Ba/F3 FLT3-ITD cells. Description: Inhibition of Ba/F3 FLT3-ITD cell proliferation (CTG). The settings on record: 72 hours, read-out: BaF3 [FLT3-ITD] IC50. The method, then: Cell lines were cultured under the condition of 37° C., 5% CO2 and 95% humidity: cell line Ba/F3 parental (suspended, 3000 cells/well, medium was RPMI-1640+10% FBS+8 ng/ml IL-3), cell line Ba/F3 FLT3-ITD (suspended, 3000 cells/well, medium was RPMI-1640+10% FBS)
Reagents and materials: Fetal bovine serum (FBS, GBICO, Cat. No. 10099-141), CellTiter-Glo® Luminescent Cell Viability Assay (Promega, Cat. No. G7572), 96-well plate with transparent flat bottom and black walls (Corning®, Cat. No. 3603), control compound AC220 (Selleck, Cat. No. S1526).
Cell Culture and Inoculation: • 1. Cells in the logarithmic growth phase were harvested and counted using a platelet counter. The cell viability was determined by trypan blue exclusion method to ensure that the cell viability was greater than 90%; • 2. The cell concentration was adjusted and 90 μL of the cell suspension was added into a 96-well plate respectively; • 3. The cells in the 96-well plate were cultured overnight under the condition of 37° C., 5% CO2 and 95% humidity.
Drug Dilution and Dosing: • 1. The 10-fold drug solutions were prepared with a maximum concentration of 100 μM, which was diluted using a 3.16-fold serial gradient dilution, resulting in 9 concentrations. 10 μL of the drug solutions was added to each well of the 96-well plate inoculated with Ba/F3 parental cells; and each drug concentration was set in triplicate. • 2. The 10-fold drug solutions were prepared with a maximum concentration of 10 μM, which was diluted using a 3.16-fold serial gradient dilution, resulting in 9 concentrations. 10 μL of the drug solutions was added to each well of the 96-well plate inoculated with Ba/F3 FLT3-ITD cells; and each drug concentration was set in triplicate. • 3. The cells in the 96-well plate with drugs were cultured at 37° C., 5% CO2 and 95% humidity for 72 hours, and then CTG analysis was carried out.
Plate Reading at the End Point: • 1. CTG reagent was thawed and the cell plate was equilibrated to room temperature for 30 minutes; • 2. Equal volume of the CTG solution was added to each well; • 3. The cell plate was shaked on the orbital shaker for 5 minutes to lyse the cells; • 4. The cell plate was placed at room temperature for 20 minutes to stabilize the cold light signal; • 5. The cold light values were read.
GraphPad Prism 8.0 software was used to analyze the data, and the data was fitted using the non-linear S-curve regression to get a dose-effect curve, and IC50 values were calculated. Cell viability (%)=(Lum of test drug−Lum of medium control)/(Lum of cell control−Lum of medium control)×100%.

For orientation: IC50 means the concentration at which inhibition is half-maximal. Take `[2H]C([2H])([2H])Oc1cc(Nc2nc(NC3CCOCC3)c(CC)nc2C(N)=O)ccc1N1CCC(N2CCN(C)CC2)CC1` [Compound T-1, 6-ethyl-3-((3-(methoxy-d3)-4-(4-(4-methylpiperazin-1-yl)piperidin-1-yl)phenyl)amino)-5-((tetrahydro-2H-pyran-4-yl)amino)pyrazine-2-carboxamide]: the IC50 in the experiment with MOLM-13 cells amounted to 15 nM; with MV-4-11 cells it was 2.17 nM; with Ba/F3 FLT3-ITD cells it was 46.5 nM.
As for `[2H]C([2H])([2H])N1CCN(C2CCN(c3ccc(Nc4nc(NC5CCOCC5)c(CC)nc4C(N)=O)cc3OC)CC2)CC1` [Compound T-2, 6-ethyl-3-((3-methoxy-4-(4-(4-(methyl-d3)piperazin-1-yl)piperidin-1-yl)phenyl)amino)-5-((tetrahydro-2H-pyran-4-yl)amino)pyrazine-2-carboxamide], the IC50 in the experiment with MOLM-13 cells was 14.3 nM; in the experiment with MV-4-11 cells, 2.35 nM; in the experiment with Ba/F3 FLT3-ITD cells, 51.3 nM.
In the case of `[2H]C([2H])([2H])Oc1cc(Nc2nc(NC3CCOCC3)c(CC)nc2C(N)=O)ccc1N1CCC(N2CCN(C([2H])([2H])[2H])CC2)CC1` [Compound T-3, 6-ethyl-3-((3-(methoxy-d3)-4-(4-(4-(methyl-d3)piperazin-1-yl)piperidin-1-yl)phenyl)amino)-5-((tetrahydro-2H-pyran-4-yl)amino)pyrazine-2-carboxamide], the IC50 is 14.2 nM with MOLM-13 cells, 2.25 nM in the experiment on MV-4-11 cells and 89 nM in the experiment on Ba/F3 FLT3-ITD cells.
On to `[2H]C([2H])([2H])N1CCN(C2CCN(c3ccc(Nc4nc(NC5CCOCC5)c(C([2H])([2H])C([2H])([2H])[2H])nc4C(N)=O)cc3OC)CC2)CC1` [Compound T-5, 6-(ethyl-d5)-3-((3-methoxy-4-(4-(4-(methyl-d3)piperazin-1-yl)piperidin-1-yl)phenyl)amino)-5-((tetrahydro-2H-pyran-4-yl)amino)pyrazine-2-carboxamide], for which the IC50 with MOLM-13 cells was determined as 12 nM; in the experiment with MV-4-11 cells, 2.01 nM; in the experiment on Ba/F3 FLT3-ITD cells, 94.4 nM.
Consider `[2H]C1([2H])N(C)C([2H])([2H])C([2H])([2H])N(C2CCN(c3ccc(Nc4nc(NC5CCOCC5)c(CC)nc4C(N)=O)cc3OC)CC2)C1([2H])[2H]` [Compound T-8, 6-ethyl-3-((3-methoxy-4-(4-(4-methylpiperazin-1-yl-2,2,3,3,5,5,6,6-d8)piperidin-1-yl)phenyl)amino)-5-((tetrahydro-2H-pyran-4-yl)amino)pyrazine-2-carboxamide], for which the IC50 was 2.17 nM in the experiment with MV-4-11 cells and 85 nM with Ba/F3 FLT3-ITD cells.
For the compound `[2H]C([2H])([2H])N1C([2H])([2H])C([2H])([2H])N(C2CCN(c3ccc(Nc4nc(NC5CCOCC5)c(CC)nc4C(N)=O)cc3OC)CC2)C([2H])([2H])C1([2H])[2H]` [Compound T-9, 6-ethyl-3-((3-methoxy-4-(4-(4-(methyl-d3)piperazin-1-yl-2,2,3,3,5,5,6,6-d8)piperidin-1-yl)phenyl)amino)-5-((tetrahydro-2H-pyran-4-yl)amino)pyrazine-2-carboxamide], the IC50 is 14.5 nM in the experiment on MOLM-13 cells, 2.03 nM with MV-4-11 cells and 72 nM in the experiment on Ba/F3 FLT3-ITD cells.
With `CCc1nc(C(N)=O)c(Nc2ccc(N3CCC(N4CCN(C)CC4)CC3)c(OC)c2)nc1NC1CCOCC1` [Gilteritinib, 6-ethyl-3-((3-methoxy-4-(4-(4-methylpiperazin-1-yl)piperidin-1-yl)phenyl)amino)-5-((tetrahydro-2H-pyran-4-yl)amino)pyrazine-2-carboxamide, reference compound], the IC50 came out at 14.3 nM in the experiment on MOLM-13 cells and 2.23 nM with MV-4-11 cells.
